This is an account of results in paper PMC6321537 (Molecules, 2018).

Data set [1] is described as follows: Solubility measurements in injection media (excess powder, HPLC). The data set is classed as physicochemical. To be noted: for solubility at 72 h: thermodynamic from solid; for aqueous solubility as times that of the parent drug (PTX): relative to PTX 0.4 μg/mL. As for the experimental part:
The flow rate was 1 mL/min, with the mobile phase starting at 50% acetonitrile and 50% water and transitioning to 60% acetonitrile and 40% water at 13 min, then returning to 50% acetonitrile and 50% water at 25 min. Chromatographic peaks of the three compounds were identified based on their retention times and chromatographic responses. Peak area measurements were utilized to regress calibration curves to determine each compound.
The test system was shaken at 25 °C for 72 h, then centrifugated at 10,000 rpm for 10 min. Each supernate was collected and 0.22 μm filtered off, then determined by HPLC.

Data set [2] can be described thus: Log P by miniaturized shake flask method (n-octanol/water). The data set is classed as physicochemical. To be noted: shaken 24 h, mean ± SD, n = 4. The protocol: Log P and was determined by a miniaturized shake flask method. Briefly, the organic phase consisted of n-octanol saturated with water. Respectively, the aqueous phase consisted of water saturated with n-octanol.

Data set [3] has as its system breast cancer cells MDA-MB-231. Description: MTT cytotoxicity assay. The data set is classed as cell-based. The settings on record: Homo sapiens. As for the experimental part: (§1) In vitro anti-cancer effects against cancer cells and safety to normal cells of the prodrugs were evaluated by cytotoxicity.
(§2) MDA-MB-231 cells were seeded in a 96-well transparent plate, at a density of 5000 cells/well. […] After 72 h incubation, the plates were washed with HBSS and MTT solution was added. The final concentration of MTT in each well was 0.5 mg/mL. Then 4 h later, the solution on the plate was removed and the content was dissolved with DMSO [33].The absorption was measured at 490 nm and cell viability was calculated, cell viability% = OD of treated cells/OD of untreated cells × 100% [51].

Data set [4] concerns normal breast cells Hs578Bst. The data set can be described thus: MTT cytotoxicity assay. It counts as cell-based. As for the experimental part: as §1, §2
Data set [5] relates to ovarian cancer cells A2780. The data set can be described thus: MTT cytotoxicity assay. It counts as cell-based. The settings on record: Homo sapiens.
Another data set concerns MDA-MB-231 cells. The data set can be described thus: Annexin V-FITC/PI apoptosis assay (flow cytometry). It counts as cell-based. To be noted: MDA-MB-231, 1 μM, 24 h. As for the experimental part: Cell apoptosis was tested by an Annexin V-FITC/PI staining assay and analyzed by flow cytometry, the result is illustrated in Figure 6. According to Figure 6a, the four regions represent different cell stages. Q1 represents necrotic cells ([…]), Q2 and Q3 represent late apoptotic cells (Annexin V+/PI+) and early apoptotic cells (Annexin V+/PI–), and Q4 represents normal cells (Annexin V–/PI–).
MDA-MB-231 cells were seeded in a 6-well transparent plate, at a density of 5 × 10^5 cells/well. […] After 24 h incubation, the cells were harvested by trypsin, washed with HBSS, and 1 mL of binding buffer (containing Annexin V-FITC and PI) was added, final concentration of Annexin V-FITC and PI were both 1 μg/mL [52]. After that, the test system was incubated in the dark for 10 min, then analysis was immediately conducted by flow cytometry. The fluorescence intensity of Annexin V-FITC was measured at an excitation/emission wavelength of 488/530 nm, the fluorescence intensity of PI was measured at an excitation/emission wavelength of 488/617 nm. Each assay was repeated in triplicate.

For data set [6] the following is noted: cited from earlier work.
Data set [7] in a line: Solubility of SG-PTX at various pH conditions. The data set is classed as physicochemical. As for the experimental part:
An aqueous solution of different pH was adjusted by HCl or NaOH, Excess powder of SG-PTX was added to solutions of different pH, respectively. The test system was shaken at 25 °C for 72 h, then centrifugation at 10,000 rpm for 10 min. Each supernate was collected and 0.22 μm filtered off, then determined by HPLC.

Data set [8] is described as follows: Solubility of SG-PTX in various formulations (surfactant solutions). The settings on record: for solubility at 72 h: 25 °C, aqueous with cosolvent or surfactant or cyclodextrin, thermodynamic from solid, no ethanol, read-out: solubility in formulation. It counts as physicochemical. As for the experimental part:
Solubility of SG-PTX in various formulations was tested, SG-PTX was added into formulations with different proportion (v/v) of water and surfactants. These solubility tests were carried out according to the same protocol as aqueous solubility assays.
Solutions of different surfactants (Cremophor EL, Tween-80, and PEG-400) were prepared at different concentrations of 2.5%, 5%, 10%, and 15% (v/v). Excess powder of SG-PTX was added into different formulations, respectively. The test system was shaken at 25 °C for 72 h, then centrifugation at 10,000 rpm for 10 min. Each supernate was collected and 0.22 μm filtered off, then determined by HPLC.

[9] abbreviates: 25 °C, saline or isotonic, 5% glucose solution, 25 °C, shaken 72 h, mean ± SD, n = 4, read-out: Solubility, 5% Glucose.
The mark [10] stands for this setting: 25 °C, saline or isotonic, saline, 25 °C, shaken 72 h, mean ± SD, n = 4, read-out: Solubility, Saline.
Setting [11] is: 25 °C, water, pure water, 25 °C, shaken 72 h, mean ± SD, n = 4, read-out: Solubility, Pure Water.

Values after ≈ are worked out from the molar mass of the structure shown. Read-outs that look alike come from different tables or passages of the source. Bounds are passed on as bounds.

For the compound `CC(=O)O[C@H]1C(=O)[C@]2(C)[C@@H](OC(=O)CCC(=O)OC3O[C@H](CO)[C@@H](O)[C@H](O)[C@H]3O)C[C@H]3OC[C@@]3(OC(C)=O)[C@H]2[C@H](OC(=O)c2ccccc2)[C@]2(O)C[C@H](OC(=O)[C@H](OC(=O)CCC(=O)OC3O[C@H](CO)[C@@H](O)[C@H](O)[C@H]3O)[C@@H](NC(=O)c3ccccc3)c3ccccc3)C(C)=C1C2(C)C` (stereo partly shown) [DG-PTX, C7 and C2′-double glycosylated paclitaxel], the solubility at 72 h in data set [1] (setting [9]) was 34.8 ± 4.22 µg/mL (≈ 25.2 µM); in data set [1] (setting [10]), 36.7 ± 2.05 µg/mL (≈ 26.6 µM); in data set [1] (setting [11]), 39 ± 5.66 µg/mL (≈ 28.3 µM). Besides, in data set [1], the “aqueous solubility as times that of the parent drug (PTX)” value amounted to 97.4 times. For the same compound, the logP at 24 h in data set [2] stood at 2.12 ± 0.08. In addition, the IC50 in data set [3] (MDA-MB-231, 72 h) is 395 nM; in [4] (Hs578Bst, 72 h), above 2000 nM; in data set [5] (A2780, 72 h), 1610 nM. Moreover, the “total percentage of apoptotic cells (late apoptosis + early apoptosis)” value (“total percentage of apoptotic cells” below) in the data set on MDA-MB-231 cells came to 14.6%.
With `CC(=O)O[C@H]1C(=O)[C@@]2(C)[C@H]([C@H](OC(=O)c3ccccc3)[C@]3(O)C[C@H](OC(=O)[C@H](O)[C@@H](NC(=O)c4ccccc4)c4ccccc4)C(C)=C1C3(C)C)[C@]1(OC(C)=O)CO[C@@H]1C[C@@H]2O` [PTX, Paclitaxel, reference compound], the solubility at 72 h in data set [1] (5% glucose solution, 25 °C, saline or isotonic, 5% glucose solution, 25 °C, shaken 72 h, mean ± SD, n = 4, read-out: Solubility, 5% Glucose) was below 1 µg/mL; in [1] (pure water, 25 °C, water, pure water, 25 °C, shaken 72 h, mean ± SD, n = 4, read-out: Solubility, Pure Water) it was below 1 µg/mL; in data set [1] (saline, 25 °C, saline or isotonic, saline, 25 °C, shaken 72 h, mean ± SD, n = 4, read-out: Solubility, Saline), below 1 µg/mL. Moreover, the concentration for half-maximal inhibition (IC50) in data set [3] (MDA-MB-231, 72 h incubation, MTT, read-out: IC50) came out at 30.5 nM; in data set [4] (Hs578Bst normal breast cells, 72 h incubation, MTT, read-out: IC50) it was 632 nM; in [5] (A2780, 72 h incubation, MTT, read-out: IC50), 194 nM. Further, the “total percentage of apoptotic cells” value in the data set on MDA-MB-231 cells is on record as 37.5%. For the same compound, the “Log P” value in data set [6] is 3.97 [27].
Regarding `CC(=O)O[C@H]1C(=O)[C@@]2(C)[C@H]([C@H](OC(=O)c3ccccc3)[C@]3(O)C[C@H](OC(=O)[C@H](OC(=O)CCC(=O)OC4O[C@H](CO)[C@@H](O)[C@H](O)[C@H]4O)[C@@H](NC(=O)c4ccccc4)c4ccccc4)C(C)=C1C3(C)C)[C@]1(OC(C)=O)CO[C@@H]1C[C@@H]2O` (stereo partly shown) [SG-PTX, C2′-single glycosylated paclitaxel], the solubility at 72 h in data set [1] (setting [9]) is 17.9 ± 0.28 µg/mL (≈ 16 µM); in data set [1] (setting [10]) it was 17.83 ± 0.09 µg/mL (≈ 16 µM); in data set [1] (setting [11]), 17.9 µg/mL (≈ 16 µM); in data set [7] (aqueous solution, pH adjusted with HCl or NaOH, aqueous buffer, thermodynamic from solid, pH 9 and pH 10, water and two common injection media, 25 °C), around 27 µg/mL (≈ 24.2 µM); in [8] (2.5% (v/v) Cremophor EL in water), 807 µg/mL (≈ 723 µM); in [8] (2.5% (v/v) Tween-80 in water) it was 468 µg/mL (≈ 419 µM). The solubility at 72 h in [8] (15% (v/v) Cremophor EL in water) worked out at 1320 µg/mL (≈ 1180 µM); in [8] (15% (v/v) Tween-80 in water), 961 µg/mL (≈ 861 µM). The “Solubility, Pure Water” value in data set [1] (pure water, 25 °C, shaken 72 h, mean ± SD, n = 4) came to 19.93 ± 4.07 µg/mL (≈ 17.9 µM). Moreover, the “aqueous solubility as times that of the parent drug (PTX)” value in data set [1] is given as 49.8 times. Moreover, the logP at 24 h in data set [2] is 2.77 ± 0.16. In addition, the IC50 in [3] (MDA-MB-231, 72 h) is 149 nM; in [4] (Hs578Bst, 72 h), 1670 nM; in data set [5] (A2780, 72 h) it was 1080 nM. In the data set with MDA-MB-231 cells, the “total percentage of apoptotic cells” value stood at 21.23%. Also, the “change of solubility with pH” value in [7] (pH level of 1 to 8) is “no significant change”. In addition, in [8] (PEG-400 in water, compared with Cremophor EL and Tween-80), the solubility in formulation result is reported as “the lowest”.

By solubility is commonly meant how much of the substance goes into solution per volume. Broadly, the logP is the decadic logarithm of the partition coefficient of the neutral form, usually between octanol and water. Low readings indicate a more hydrophilic compound, high ones a more lipophilic compound. In general, IC50 refers to the concentration that inhibits the measured activity by half. The Log P is the decadic logarithm of the partition coefficient of the neutral form, usually between octanol and water.
